“Also recorded” adds a separate entry of the source. Where two headings read alike, the source gives them in different places.
Assays:
Type in all cases: cell-based, human
[1] = tested on: cluster 1-like/CD64^Hi,PD-L1^Hi cDCs; assay: Acquisition of the CD64Hi,PD-L1Hi cDC phenotype in elite controller cells exposed to virus with inhibitory drugs (flow cytometry)
[2] = tested on: cluster 1-like/CD64^Hi,PD-L1^Hi cDCs; assay: Induction of CD64Hi,PD-L1Hi cDCs in PBMCs incubated with TLR3 agonist and nanoparticle-encapsulated HIV-1 Gag DNA, without live virus; settings: PBMCs from healthy (HIV-negative) individuals; 2 μg/ml Poly I:C and/or polymer nanoparticles loaded with 100 nucleotide HIV-1 Gag DNA; no live virus
Method: PBMC or isolated cDCs were stained with LIVE/DEAD cell blue viability dye (Invitrogen, Carlsbad, Calif.) and monoclonal antibodies directed against CD11c (Biolegend), CD14 (BD), HLA-DR, CD64, PDL-1, ICAM1, CD16, SLAMF8 (Biolegend) and subsequently analyzed on a Fortessa cytometer (BD Biosciences, San Jose, Calif.). For intracellular cytokine staining, cells were treated with a commercial fixation/permeabilization kit (BioLegend) according to the manufacturer's protocol. Data were analyzed with FlowJo software (Tree Star). cDCs were identified from bulk PBMCs as a population of viable CD14^− lymphocytes expressing high levels of CD11c and HLA-DR.
Finally, Applicants explored how Applicants might further exploit this TBK1-dependent innate immune sensing pathway to boost the fraction of cDCs acquiring the cluster 1 phenotype without exposure to live virus. For this purpose, Applicants incubated PBMCs from healthy individuals or ECs simultaneously with a TLR3 agonist (Poly(I:C)) and single- or double-stranded HIV-1 Gag DNA (ssDNA or dsDNA, respectively) encapsulated in polymeric nanoparticles. […]

[3] = tested on: cluster 1-like/CD64^Hi,PD-L1^Hi cDCs

For `O=C(NCCCNc1nc(Nc2cccc(NC(=O)N3CCCC3)c2)ncc1I)c1cccs1` [BX795], the “induction of the cluster 1-like/CD64^Hi,PD-L1^Hi population” value ([1]; EC PBMCs, 1 μM BX795 added at the time of viral addition, p=0.0020, Wilcoxon signed-rank test) was “dramatic and significant abrogation”.
For `O=C(N[C@H](Cc1ccccc1)C(=O)O)c1sc2cc(F)ccc2c1Cl` [TLR3 inhibitor], the “acquisition of the cluster 1/CD64^Hi,PD-L1^Hi cDC phenotype” value ([1]; elite controllers (ECs), virus plus TLR3 or TLR4 antagonist vs DMSO, p=0.0^2, Wilcoxon matched-pairs signed-rank test) was “modest, but significant, effect”.
In the case of Poly(I:C), the “proportion of cluster 1-like/CD64^Hi,PD-L1^Hi cDCs” value [2] is reported as “insufficient”, the “proportion of CD64^Hi PDL1^Hi cells among cDCs” value [3] is reported as “significantly induce” and the “proportion of cluster 1-like/CD64^Hi,PD-L1^Hi cDCs” value ([3]; 24 hours) is reported as “significantly induce; also recorded: induced a larger population; also recorded: significant increase”.

Reference: patent US20190144942A1, “METHODS FOR IDENTIFYING AND MODULATING IMMUNE PHENOTYPES” (priority 2016, published 2019)
